We go through eight compounds from patent US20260374766A1, “METHODS FOR TREATING CANCER” (Antares Therapeutics, Inc., priority 2022, published 2026).

Read-outs that look alike come from different tables or passages of the source.

In one experiment the test system is NUGC3 p53 Y220C. Description: Cell Proliferation Assay (CellTiter-Glo, CTG), NUGC3 p53 Y220C. The note with it: Homo sapiens, NUGC-3, 120 h, 5 days, CellTiter-Glo. It is filed as cell-based. An outline of the steps: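 NClH1299 lines stably transduced with Tet-inducible p53 Y220C or R273H, plus NUGC3, were treated with compound for 5 days at 250-500 cells/well. IC50 derived from CellTiter-Glo luminescent signal after 10 min room-temperature incubation.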

A further experiment deals with H1299 p53 R273H. Description: Cell Proliferation Assay (CellTiter-Glo, CTG), H1299 p53 R273H (NClH1299-inducible p53 R273H). Format: cell-based. The note with it: Homo sapiens, NCI-H1299, 120 h, 5 days, CellTiter-Glo. In a few lines: (§1)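 Tet-One inducible p53 Y220C or R273H constructs were stably introduced into NCI-H1299 by lentiviral transduction; NUGC3 was used as is. Cells (250-500 per well) were exposed to compound for 5 days, then CellTiter-Glo was added for 10 min at room temperature and IC50 was calculated from luminescence.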
(In general: Cellular ATP, detected with luciferase, serves as a proxy for viable cell number.)

The target of experiment [1] is T1, p53 Y220C mutant protein (amino acid residues 94-293) (Homo sapiens, UniProt P04637, Y220C).
T1 construct: p53 Y220C mutant protein (amino acid residues 94-293)
The experiment can be described thus: Surface Plasmon Resonance (SPR) assay, Kd_kinetic. It is filed as binding. An outline of the steps:
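Kd values come from fitting sensorgrams to a 1:1 binding model. Sensorgrams were recorded on a Biacore 8K at 16 or 20 °C in pH 7.5 Tris buffer with 100 mM NaCl, 1 mM DTT, detergents and 1% DMSO.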

The target of experiment [2] is T1, p53 Y220C mutant protein (amino acid residues 94-293). Description: Thermal Shift Assay (TSA), dTM. The following applies: for ΔTm at 10 µM: 10 uM compound; for ΔTm at 100 µM: 100 uM compound. It is filed as binding. An outline of the steps: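 Differential scanning fluorimetry with Sypro Orange on 5 μM p53 Y220C residues 94-293, compound tested at 10 μM or 100 μM after 3 hours at 20 °C; buffer 20 mM HEPES, pH7.4, 100 mM NaCl, 1% DMSO.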

The target of the next experiment is p53 Y220C (Homo sapiens, UniProt P04637, Y220C). The experiment can be described thus: Luciferase Reporter Assay (Luc), p53 response element, NClH1299 cells with inducible p53 Y220C. Format: cell-based. In a few lines:
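24 h dox pre-induction (0.5 ug/mL), then 6 h compound; One-Glo luminescent read.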
On the technique in general: Reporter assays use an easily measured gene product as a stand-in for the process of interest.

For a further experiment, the system named is H1299 p53 Y220C. The experiment can be described thus: Cell Proliferation Assay (CellTiter-Glo, CTG), H1299 p53 Y220C (NClH1299-inducible p53 Y220C). Format: cell-based. The note with it: Homo sapiens, NCI-H1299, 120 h, 5 days, CellTiter-Glo. An outline of the steps:
as §1

Setting [3] is: NClH1299-inducible p53 R273H cells.
[4] abbreviates: SPR, p53 Y220C, read-out: SPR P53 Y220C KD kinetic.
Setting [5] is: p53 Y220C, read-out: TSA P53 Y220C dTM.
Setting [6] is: AC50, luciferase reporter, NClH1299 inducible p53 Y220C, 6 hour, read-out: Luc P53 Y220C AC50.
[7] abbreviates: Emax, luciferase reporter, NClH1299 inducible p53 Y220C, 6 hour.
Where [8] appears, read: NClH1299-inducible p53 Y220C cells.
The mark [9] stands for this setting: SPR, kinetic KD, p53 Y220C, read-out: SPR P53 Y220C KD kinetic.
Where [10] appears, read: thermal shift, read-out: TSA P53 Y220C dTM (100 uM).
Setting [11] is: luciferase reporter, NClH1299 inducible p53 Y220C, 6 hour, 10 uM tool compound as positive control.
Setting [12] is: luciferase reporter, NClH1299 inducible p53 Y220C, 6 hour, read-out: Luc P53 Y220C AC50.
Setting [13] is: thermal shift, read-out: TSA P53 Y220C dTM (10 uM).

For the compound `CNC(=O)c1ccc(OC)c(NCC#Cc2nn3c(N[C@@H]4CCN(C)C[C@@H]4F)cccc3c2SC(F)(F)F)c1` [Example 231], the IC50 (as a rule, the point on the concentration scale where inhibition reaches its midpoint) is less than 750 nM in the experiment on NUGC3 p53 Y220C (NUGC3 cells), 5000 to 8000 nM with H1299 p53 R273H (setting [3]) and less than 750 nM with H1299 p53 Y220C (setting [8]). In experiment [1] (setting [4]), the Kd – broadly, the constant that tells how readily two partners part at equilibrium – is less than 10 nM. Further, in experiment [2] (setting [5]), the ΔTm at 10 µM was not below 10 °C. Further, the ΔTm at 100 µM in experiment [2] (setting [5]) was not below 10 °C. Also, the AC50 (commonly the concentration giving half of the maximal activity seen) on p53 Y220C (setting [6]) was less than 750 nM. Also, the Emax (in general, the maximal effect, on the per cent scale that the assay sets) on p53 Y220C (setting [7]) lay in the range of 80 to 90%.
On to `CNC(=O)c1ccc(NCC#Cc2nc3c(N[C@@H]4CCN(C)C[C@@H]4F)cccn3c2CC(F)(F)F)c(OC)n1` [Example 92, 5-{[3-(8-{[(3S,4R)-3-fluoro-1-methylpiperidin-4-yl]amino}-3-(2,2,2-trifluoroethyl)imidazo[1,2-a]pyridin-2-yl)prop-2-yn-1-yl]amino}-6-methoxy-N-methylpyridine-2-carboxamide], for which the IC50 is less than 750 nM in the experiment on NUGC3 p53 Y220C (NUGC3 p53 Y220C), 5000 to 8000 nM in the experiment on H1299 p53 R273H (H1299 p53 R273H) and less than 750 nM in the experiment with H1299 p53 Y220C (H1299 p53 Y220C). For the same compound, the Kd in experiment [1] (setting [9]) is less than 10 nM. For the same compound, the ΔTm at 100 µM in experiment [2] (setting [10]) was in the range of 5 to 10 °C. The compound further returned an Emax on p53 Y220C (setting [11]) of 80 to 90%. Moreover, the AC50 on p53 Y220C (setting [12]) was less than 750 nM.
As to `CNC(=O)c1ccc(OC)c(NCC#Cc2nc3c(NC4CC5(C4)CN(CC(F)F)C5)cccn3c2SC(F)(F)F)c1` [Example 204], the IC50 was 750 to 1500 nM with NUGC3 p53 Y220C (NUGC3 p53 Y220C), not below 10000 nM with H1299 p53 R273H (H1299 p53 R273H) and 750 to 1500 nM with H1299 p53 Y220C (H1299 p53 Y220C). Besides, the Kd in experiment [1] is less than 10 nM. Moreover, the ΔTm at 10 µM in experiment [2] (setting [13]) was in the range of 5 to 10 °C. Moreover, in experiment [2] (setting [10]), the ΔTm at 100 µM was not below 10 °C. The AC50 at p53 Y220C was in the range of 750 to 1500 nM. Also, on p53 Y220C (setting [11]), the Emax was more than 90%.
`CNC(=O)c1ccc(OC)c(NCC#Cc2nc3c(N[C@H]4C[C@@H]5CC[C@@H](N5)[C@H]4F)cccn3c2SC(F)(F)F)c1` [Example 203]: the IC50 in the experiment with NUGC3 p53 Y220C (NUGC3 p53 Y220C) is less than 750 nM; in the experiment with H1299 p53 R273H (H1299 p53 R273H) it was 5000 to 8000 nM; with H1299 p53 Y220C (H1299 p53 Y220C), less than 750 nM. In addition, the Kd in experiment [1] (setting [9]) was less than 10 nM. Besides, the ΔTm at 10 µM in experiment [2] (setting [13]) was not below 10 °C. Further, the ΔTm at 100 µM in experiment [2] (setting [10]) was not below 10 °C. In addition, the Emax at p53 Y220C (setting [11]) lay in the range of 70 to 80%. In addition, the AC50 at p53 Y220C (setting [12]) was less than 750 nM.
Turning to `CNC(=O)c1ccc(O)c(NCC#Cc2cc3c(N[C@@H]4CCN(C)C[C@@H]4F)nccn3c2SC(F)(F)F)c1` [Example 123], the IC50 in the experiment on NUGC3 p53 Y220C (NUGC3 p53 Y220C) is less than 750 nM; with H1299 p53 R273H (H1299 p53 R273H), not below 10000 nM; with H1299 p53 Y220C (H1299 p53 Y220C), less than 750 nM. Further, the Kd in experiment [1] (setting [9]) is less than 10 nM. The ΔTm at 10 µM in experiment [2] (setting [13]) was not below 10 °C. In addition, the Emax at p53 Y220C (setting [11]) is more than 90%. For the same compound, the AC50 at p53 Y220C (setting [12]) is less than 750 nM.
Consider `CN1CC[C@@H](Nc2cccn3c(CC(F)(F)F)c(C#CCNc4ccc(S(C)(=O)=O)cc4F)nc23)[C@@H](F)C1` [Example 68, (3S,4R)-3-fluoro-N-(2-{3-[(2-fluoro-4-methanesulfonylphenyl)amino]prop-1-yn-1-yl}-3-(2,2,2-trifluoroethyl)imidazo [1,2-a]pyridin-8-yl)-1-methylpiperidin-4-amine], for which the IC50 with NUGC3 p53 Y220C (NUGC3 p53 Y220C) is 1500 to 3000 nM; in the experiment with H1299 p53 R273H (H1299 p53 R273H) it was not below 10000 nM; with H1299 p53 Y220C (H1299 p53 Y220C) it was 1500 to 3000 nM. Further, the Kd in experiment [1] (setting [9]) is 10 to 100 nM. For the same compound, in experiment [2] (setting [10]), the ΔTm at 100 µM was 5 to 10 °C. The compound also gave an Emax at p53 Y220C (setting [11]) of 70 to 80%. Further, the AC50 on p53 Y220C (setting [12]) fell in the range of 1500 to 3000 nM.
As to `CNC(=O)c1ccc(OC)c(NCC#Cc2nn3c(N[C@@H]4CCNC[C@@H]4F)cccc3c2SC(F)F)c1` [Example 195], the IC50 is less than 750 nM in the experiment on NUGC3 p53 Y220C (NUGC3 p53 Y220C), 5000 to 8000 nM with H1299 p53 R273H (H1299 p53 R273H) and less than 750 nM in the experiment on H1299 p53 Y220C (H1299 p53 Y220C). The Kd in experiment [1] (setting [9]) was less than 10 nM. Besides, the ΔTm at 10 µM in experiment [2] (setting [13]) is not below 10 °C. Further, in experiment [2] (setting [10]), the ΔTm at 100 µM is not below 10 °C. The same compound gave an Emax at p53 Y220C (setting [11]) of 80 to 90%. For the same compound, the AC50 at p53 Y220C (setting [12]) was less than 750 nM.
Turning to `CNC(=O)c1ccc(OC)c(NCC#Cc2nn3c(N[C@@H]4CN(C)C[C@@H]4F)cccc3c2SC(F)(F)F)c1` [Example 252], the IC50 with NUGC3 p53 Y220C (NUGC3 cells) was less than 750 nM; with H1299 p53 R273H (setting [3]) it was not below 10000 nM; in the experiment on H1299 p53 Y220C (setting [8]), less than 750 nM. Moreover, the Kd in experiment [1] (setting [4]) was less than 10 nM. The ΔTm at 10 µM in experiment [2] (setting [5]) was not below 10 °C. In addition, the AC50 on p53 Y220C (setting [6]) is less than 750 nM. The compound also displayed an Emax on p53 Y220C (setting [7]) of 80 to 90%.
